Results: US6593137B1, “Antibodies specific for fullerenes” (The Trustees of Columbia University in the City of New York, priority 1999, dated 2003)
Each block holds one compound with its values, some of them ahead of it.

Assays:
[1] = system: human keratinocytes and fibroiblasts; details: cited from earlier work
[2] = system: Sprague-Dawley rats; assay: γ-camera imaging study; type: in vivo; details: IP
Experimental: The biodistribution in mice of hydroxylated lanthanide-C82 encapsulates is under current investigation. The results presented here are regarded as preliminary as the sample is still small. Studies continue under a NIH Phase I grant. The neutron irradiated samples, along with a ^166Ho^3+ control sample, were used to perform a γ-camera imaging study on four 300 g Sprague-Dawley rats. Two rats were injected intraperitoneally (IP) with 54 and 18 μCi of ^166Ho activity from samples containing irradiated Ho-metallofullerois. Two control studies were performed by IP administration of approximately 660 μCi of ^166Ho^3+ in a 1% sodium citrate buffer. The anesthetized rats were scanned side-by-side on a single stage with a γ-camera starting 1 hour after injection and periodically thereafter over the ensuing 48 hours.

[3] = Air sensitivity; type: physicochemical
Source text: While previous work reported in the literature performed HPLC under aerobic conditions, (see for example Funasaka et al. 1995) these studies determined that anaerobic controls better preserved the fraction of Gd@C82 in solution. […] The fraction containing the Gd@C82 was identified using MS. The solubility of fullerenes in o-xylene is about three times that of toluene and this greatly increases the ratio of fullerenes in solution to those retained on the stationary phase. Therefore, the capacity or amount of fullerenes purified per injection was very large. Each injection contained 2 ml of saturated fullerene o-xylene solution (about 30 mg of fullerenes).

[4] = system: anti-fullerene antibodies; assay: ELISA competitive inhibition of antibody binding to 1-RSA; set-up: species or system BALB/c mice
Experimental: After a total of three immunizations at 3-week intervals, confirmation of an immune response was determined by direct ELISA in which polystyrene plates (Corning) were coated with the 1-RSA conjugate (0.5 mg/ml in 0.1 M NaHCO3, pH 9), and binding of preimmune and immune sera were determined by standard procedures. Development was with horseradish peroxidase-labeled goat anti-mouse IgG (Sigma), which tested negative for crossreaction with an IgM preparation. The substrate used was o-phenylenediamine.
(§1) Specificity of the resp)onse was determined by two procedures: double diffusion in agar (22) and competitive inhibition, as determined by ELISA using RSA and BSA conjugates of the fullerenes, as well as the oligo lysine derivatives. The fullerenes themselves were not soluble enough in aqueous solutions.
The adenosine conjugate had been synthesized using the same strategy used for the fullerenes, i.e., linkage to the epsilon amino groups of the lysines via an N-hydroxysuccinimide ester derivative.

[5] = system: anti-fullerene antibodies; assay: Double diffusion in agar; type: binding, BALB/c mice
Experimental: Immunization Procedure and Detection of Antibodies. BALB/c mice were immunized i.p. with 1-TG in complete Freund's adjuvant for the primary immunization and incomplete adjuvant for subsequent immunizations.
as §1
Specificity of the response was determined by two procedures: Double diffusion in agar and competitive inhibition, as determined by ELISA using RSA and BSA conjugates of the fullerenes, as well as the oligo lysine derivatives. The fullerenes themselves were not soluble enough in aqueous solutions.

Compound: c12c3c4c5c1c1c6c7c2c2c8c3c3c9c4c4c%10c5c5c1c1c6c6c%11c7c2c2c7c8c3c3c8c9c4c4c9c%10c5c5c1c1c6c6c%11c2c2c7c3c3c8c4c4c9c5c1c1c6c2c3c41 [Compound C60, fullerene-C60]
- effect on rate of thymidine uptake [1]: no effect

Compound: [166Ho+3] [^166Ho^3+]
- excretion of 166Ho activity ([2]; after 24 hours): essentially all ^166Ho activity had been excreted
- urinary clearance ([2]; commencing 1 hour post-injection): rapid ^166Ho^3+ urinary clearance

Compound: Gd@C82(OH)x
- air sensitivity [3]: does not appear to be air sensitive

- inhibition of antibody binding to 1-RSA [4]: No inhibition
Compound: Rabbit Serum Albumin [RSA]

- inhibition of antibody binding to 1-RSA [4]: No inhibition
Compound: bovine thyroglobulin [TG]
- precipitation with immune serum in double diffusion in agar ([5]; TG solution diluted 5-fold): a line of precipitation was seen
- precipitation with immune serum in double diffusion in agar ([5]; serum of mice immunized with 1-TG): no visible precipitate
